# Laboratory results as given in US20040048849A1, “Cyclin-dependent kinase (cdk) and glycolene synthase kinase-3 (gsk-3) inhibitors” (priority 2000, published 2004).
# Test system: DU145 (human prostate cancer cells)
# Assay: Antiproliferative activity, WST1 colorimetric test, DU145
# Assay type: cell-based
# Conditions: 96 hours treatment, 0 to 25 μM
# Description: Characterization of the Antiproliferative Activity:
# By way of example, the effect of a treatment on two human cell lines Mia-Paca2 and DU145 by the compounds of Examples 1 to 33 described previously will be studied. The cell lines DU145 (human prostate cancer cells) and Mia-PaCa2 (human pancreas cancer cells) were acquired from the American Tissue Culture Collection (Rockville, Md., USA). The cells placed in 95 μl of Dulbecco's Modified Eagle's medium (Gibco-Brl, Cergy-Pontoise, France) completed with 10% foetal calf serum inactivated by heating (Gibco-Brl, Cergy-Pontoise, France), 100 units/l of penicillin and 100 μg/ml/l of streptomycin (Gibco-Brl, 10378-057, Cergy-Pontoise, France), and 2 mM of glutamine (Gibco-Brl, Cergy-Pontoise, France) were seeded on a 96-well plate on day 0. The cells were treated on day 1 for 96 hours with 5 μl of each of the compounds at concentrations increasing from 0 to 25 μM final concentration. At the end of this period, quantification of cell proliferation is evaluated by a colorimetric test based on the cleavage of the tetrazolium salt WST1 by the mitochondrial dehydrogenases in viable cells leading to the formation of formazan (Boehringer Mannheim, Meylan, France). These tests are carried out in duplicate with 8 determinations per concentration tested. […]
compound,measurement,value
CC[C@H](CO)Nc1nc(NCc2ccccc2)c2ncn(C(C)C)c2n1 [Roscovitine],antiproliferative activity regarding DU-145 cells,no antiproliferative activity
